These molecules were tested against T1, human G288S SLACK (Homo sapiens, UniProt Q5JUK3, G269S) (assay: Whole-cell APC in CHO cells stably expressing human G288S SLACK). Conditions: APC, CHO cells.
T1 construct: host or cells: CHO-K1
T1 sequence (Q5JUK3 1-1235 isoform Q5JUK3-3 G288S): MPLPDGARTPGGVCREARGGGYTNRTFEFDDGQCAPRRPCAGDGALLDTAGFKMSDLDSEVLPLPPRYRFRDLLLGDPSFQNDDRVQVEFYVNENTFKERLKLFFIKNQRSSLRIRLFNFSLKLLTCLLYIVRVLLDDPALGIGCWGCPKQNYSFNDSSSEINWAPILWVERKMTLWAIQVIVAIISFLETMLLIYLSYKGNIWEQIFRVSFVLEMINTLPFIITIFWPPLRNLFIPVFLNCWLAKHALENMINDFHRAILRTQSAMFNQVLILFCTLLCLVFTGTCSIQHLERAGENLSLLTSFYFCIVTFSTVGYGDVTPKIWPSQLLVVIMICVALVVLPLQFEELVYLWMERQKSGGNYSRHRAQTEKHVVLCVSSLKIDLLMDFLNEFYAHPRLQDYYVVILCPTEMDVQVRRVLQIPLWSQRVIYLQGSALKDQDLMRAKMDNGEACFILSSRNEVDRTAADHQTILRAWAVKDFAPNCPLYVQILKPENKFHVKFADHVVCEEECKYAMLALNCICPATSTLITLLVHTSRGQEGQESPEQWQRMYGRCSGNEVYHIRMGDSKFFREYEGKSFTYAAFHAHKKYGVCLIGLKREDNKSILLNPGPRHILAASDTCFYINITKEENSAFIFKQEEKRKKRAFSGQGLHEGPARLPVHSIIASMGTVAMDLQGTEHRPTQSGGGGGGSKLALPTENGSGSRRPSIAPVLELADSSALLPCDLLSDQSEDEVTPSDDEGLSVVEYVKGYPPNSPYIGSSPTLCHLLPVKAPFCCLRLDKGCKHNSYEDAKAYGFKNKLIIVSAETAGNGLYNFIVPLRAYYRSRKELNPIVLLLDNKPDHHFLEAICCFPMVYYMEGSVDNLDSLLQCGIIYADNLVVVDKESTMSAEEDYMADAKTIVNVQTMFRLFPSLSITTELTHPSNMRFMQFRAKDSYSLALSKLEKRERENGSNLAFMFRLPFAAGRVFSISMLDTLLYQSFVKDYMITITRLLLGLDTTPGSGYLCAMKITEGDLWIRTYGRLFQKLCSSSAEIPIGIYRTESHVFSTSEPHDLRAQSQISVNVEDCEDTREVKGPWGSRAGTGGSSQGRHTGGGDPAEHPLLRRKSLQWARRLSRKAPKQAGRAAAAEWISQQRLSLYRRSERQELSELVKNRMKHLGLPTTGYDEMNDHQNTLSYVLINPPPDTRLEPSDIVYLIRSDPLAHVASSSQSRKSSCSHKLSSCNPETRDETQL
Assay type: cell-based
Text: Development of a useful SLACK inhibitor in vivo tool will require potent activity at the corresponding mouse ortholog as studies in appropriate mouse models will be critical. Thus, we evaluated analogs 32 and 48 in our APC assay using CHO cells stably expressing mouse WT SLACK (Table 6). […] We were also eager to evaluate the same compounds with regard to their ability to inhibit clinically relevant GOF SLACK mutants. Both the C-terminus A934T mutant and transmembrane G288S mutant have been associated with clinical cases of EIMFS [3, 7].
Stably transfected monoclonal HEK293 cell lines expressing Slick, Maxi-K α1/β3, Maxi-K α1/β4, CaV3.2, GIRK 1/2, KV2.1, KV7.2, NaV1.7, and TASK-1 were generated as previously described. Stably transfected monoclonal HEK293 cell lines expressing hERG were generated as previously described. CHO-K1 cells expressing human Slack and disease-associated human Slack mutations, G288S and A934T, were generated by transfecting a PiggyBac TRE mammalian expression vector (VectorBuilder, Chicago, IL, USA) containing KCNT1. FuGENE 6 (Promega, Madison, WI, USA) transfection reagent and protocol, together with Opti-MEM (Thermo Fisher Scientific, Walkham, MA, USA), were utilized.
Automated patch-clamp recording was performed with a SyncroPatch 768 PE system (Nanion, Munich, Germany) as previously described. Whole-cell recordings were performed at room temperature. Cells were harvested by first washing with PBS without Mg^2+ or Ca^2+ (Gibco, Billings, MT, USA) to remove cell culture media, followed by dissociation with TryPLE (Gibco, Billings, MT, USA). Cells were then resuspended and diluted to 100,000 cells/mL in external solution. External solution contained 105 mM NaCl, 4 mM KCl, 1 mM MgCl2, 5 mM CaCl2, 10 mM HEPES, and 40 mM N-Methyl-D-glucamine chloride, titrated to pH of 7.4 and osmolarity of 300 mOsm/kg; internal solution contained 70 mM NaCl, 70 mM KF, 10 mM KCl, 5 mM EGTA, and 5 mM HEPES, titrated to a pH of 7.2 and osmolarity of 295 mOsm/kg.
The APC protocol was set as follows: Cells were held at a […] of −80 mV for 100 ms, then a ramp protocol was performed from −100 mV to 80 mV at 0.4 mV/ms, followed by holding the cell at −80 mV for another 100 ms, then steps were performed at −20 mV, 0 mV, +20 mV, +40 mV, and +60 mV for 100 ms of each step. Whole-cell currents were measured at 0 mV and normalized to current after external buffer addition. […] To obtain the concentration-response relationship graphs and IC50 values, we take the median value of the last 7 current amplitude values obtained for each set of data points collected for a given concentration at a particular step.

| IC50 [nM] | SMILES |
| --- | --- |
| 710 | CCCCN(Cc1ccc(F)cc1)c1nc2c(c(=O)n(Cc3cccc(OC)c3)c(=O)n2C)n1C [Analog 80] |
| 790 | COc1cccc(Cn2c(=O)c3c(nc(N(Cc4ccc(F)cc4)CC4CC4)n3C)n(C)c2=O)c1 [Analog 81] |

More lines, now with the values behind:

| SMILES | IC50 [nM] |
| --- | --- |
| COc1cccc(Cn2c(=O)c3c(nc(N(C)Cc4ccccc4)n3C)n(C)c2=O)c1 [Analog 32] | 650 |
| CN(Cc1cccc(F)c1)c1nc2c(c(=O)n(Cc3ccccc3)c(=O)n2C)n1C [Analog 48] | 750 |
| CCCCN(Cc1cccc(F)c1)c1nc2c(c(=O)n(Cc3cccc(OC)c3)c(=O)n2C)n1C [Analog 78] | 880 |
| COc1cccc(Cn2c(=O)c3c(nc(N(Cc4cccc(F)c4)CC4CC4)n3C)n(C)c2=O)c1 [Analog 79] | 1000 |

Same assay, conditions: maximum inhibition at 30 µM standardized to VU0606170 (100%)

| SMILES | Imax [%] |
| --- | --- |
| COc1cccc(Cn2c(=O)c3c(nc(N(C)Cc4ccccc4)n3C)n(C)c2=O)c1 [Analog 32] | 100 |
| CN(Cc1cccc(F)c1)c1nc2c(c(=O)n(Cc3ccccc3)c(=O)n2C)n1C [Analog 48] | 100 |

— PMC11173529, “Structure–Activity Relationship Studies in a Series of Xanthine Inhibitors of SLACK Potassium Channels” (Molecules, 2024)
